In PMC4860837, “Structural basis for Sfm1 functioning as a protein arginine methyltransferase” (Cell Discovery, 2015):

Molecular target: T1, Sfm1 (Saccharomyces cerevisiae, UniProt Q12314)
T1 construct: full length, residues 1-213; C-terminal His6 tag (crystal) or N-terminal GST tag (activity assay), E. coli BL21(DE3); monomer
Experiment: X-ray crystallography, […] Å
Format: binding
Details: co-crystallised with SAH ([…] molar ratio), pH […] °C; cofactor pocket of trefoil knot

## Nc1ncnc2c1ncn2[C@@H]1O[C@H](CSCC[C@H](N)C(=O)O)[C@@H](O)[C@H]1O [SAH]
  X-ray crystallography, 2.5 Å: In the SAH-bound Sfm1 structure, SAH is clearly defined in the electron density map
